From patent publication US12564568B2, “PKC pathway in Parkinson's Disease” (CEDARS-SINAI MEDICAL CENTER, priority 2018, dated 2026)
“Also recorded” adds a separate entry of the source.

What was measured:
[1] = IV bolus dose study, cardiovascular effects in mini-pig; type: in vivo; conditions: doses up to 5 ug/kg (highest tested)
From the text: In multiple IV bolus dose studies, the following was observed.

[2] = tested on: PKC C1 domains; conditions: cited from earlier work
[3] = Dose ranging study in rat; type: in vivo; conditions: rats, for 7 days
Description: (§1) For dose ranging studies in rat and mini-pig. Repeated doses up to 15 ug/kg/day for 7 days were tolerated in rats, 5 ug/kg in pigs

[4] = tested on: α-synuclein; assay: α-synuclein protein level in day 30 iPSC-derived mDA (DaN) cultures after drug treatment (western blot, immunostaining); type: cell-based, human
Description: iPSC maintenance, mDA neuron differentiation and drug treatments: iPSCs were maintained in E8 media on Matrigel and passaged every 5 days at split ratios from 1:6 to 1:12 as needed using Versene. Only iPSCs between passage 17 and passage 35 were used in this study. For differentiation, iPSCs were grown to ˜80% confluency. Cells were singularized with Accutase (Millipore/Sigma #SCR005) (5 minutes at 37° C.) and plated onto Matrigel-coated 6-well plates (BD Biosciences) at 200K cells per cm^2 (for a fully confluent monolayer) in E8 media with 5 μM Y27632 (StemGent). 24 hours after plating, media was changed to Stage 1 (50% DMEM/F12, 50% Neurobasal, N2, B27-Vitamin A, LDN-193189 (LDN), SB431542 (SB)). Stage 1 media was changed each day (3 mL per well) for 3 days. Media was next switched to Stage 2 (50% DMEM/F12, 50% Neurobasal, N2, B27-Vitamin A, LDN, SB, Purmorphamine (PMN), CHIR99021 (CHIR), Sonic hedgehog (SHH), Fibroblast Growth Factor 8 (FGF8)). Stage 2 media was changed each day (3 mL per well) for 4 days. Media was then switched to Stage 3 (50% DMEM/F12, 50% Neurobasal, N2, B27-Vitamin A, LDN, CHIR, all-trans-Retinoic acid (ATRA)). Stage 3 media was changed each day (3 mL per well) for 4 days. Finally, media was switched to Stage 4 (50% DMEM/F12, 50% Neurobasal, N2, B27+Vitamin A, Brain-Derived Neurotrophic Factor (BDNF), Glial Cell Line-Derived Neurotrophic Factor (GDNF), dibutyryl cyclic-AMP sodium salt (dbCAMP), L-Ascorbic Acid (AA), γ-Secretase inhibitor (DAPT), CHIR, Transforming Growth Factor beta-3 (TGF β3)). Stage 4 media was changed each day (3 mL per well) for 3 days. On day 15, cells were dissociated to single cells using Accutase (20 mins at 37° C.) and gently lifted. Dissociated cells were resuspended in Maturation Medium (50% DMEM/F12, 50% Neurobasal, N2, B27+Vitamin A, BDNF, GDNF, dbCAMP, AA, DAPT, TGF3) plus 5 μM Y27632 and reseeded onto Matrigel-coated 6-well plates at 200 k/cm^2 in 1 mL total volume or onto Matrigel-coated L-glass coverslips in a 24-well plate at 200 k/50 μL drop. Cells were allowed to attach for 45 mins at 37° C. and Maturation Medium was then added to final volumes of 3 mL per well for 6-well plates or 1.5 mL per well for 24-well plates with coverslips. A full medium change was performed 48-hours post-seeding and medium was changed every 3 days until day 30. For drug treatments, cells at day-27 were fed with Maturation Medium containing the indicated drug and cells were analyzed at day 30.
Immunocytochemistry and imaging: mDA neuron cultures were plated on L-glass coverslips and grown as above. Day 30 neurons were fixed in 4% PFA at room temperature for 10-15 mins. Fixed coverslips were washed in PBS and permeabilized for 10 minutes at room temperature in 1% Triton X-100 in PBS, followed by staining in primary antibody solution (5% normal donkey serum, 0.125% Triton-X, PBS) overnight at 4° C. with the following antibodies: TH (1:5000, Immunostar #22941) and α-synuclein (1:500, Abcam #ab138501). Samples were washed 3 times in PBS and stained with species-specific Alexa Fluor 488 or 594-conjugated secondary antibodies (1:500, Invitrogen) for 2 hours at room temperature, followed by DAPI counterstain. Confocal Z-stack images were acquired using a A1 microscope (Nikon) with 40× and 20× objectives and rendered using maximum intensity projection through IMARIS software (Bitplane).
Western blot: Cells were gently scraped off the plates, washed with PBS, centrifuged at 15000 RPM for 1 min, and dry pellets were frozen at −80° C. Samples were then thawed and lysed using 1×NETN buffer (20 mM Tris-HCl (pH 8.0), 100 mM NaCl, 0.5 mM EDTA and 0.5% NP-40) supplemented with phosphatase/protease inhibitor cocktail (MS-SAFE, Sigma-Aldrich). Lysates were sonicated in an automated cold bath sonicator for 20 mins using alternating 10 sec pulses followed by 10 sec rests. Samples were centrifuged for 20 min at 4° C. at 15000 RPM. Total soluble protein concentrations were measured using a Bradford assay (BIO-RAD). […]

[5] = Repeat dose tox study in rats; type: in vivo, rat; conditions: up to 10 ug/kg/day for 7 days, IV tail vein injection
Description: In a repeat dose tox study in rats—animals were given up to 10 ug/kg/day for 7 days by IV tail vein injection. […] In a repeat dose tox study in mini-pigs—animals were given up to 5 ug/kg/day IV approximately 1×/week.

[6] = Dose ranging study in mini-pig; type: in vivo; conditions: pigs
Description: as §1

## C/C=C(/C)C(=O)O[C@H]1C(C)=C[C@]23C(=O)[C@@H](C=C(CO)[C@@H](O)[C@]12O)[C@H]1[C@@H](C[C@H]3C)C1(C)C [PEP005, ingenol-3-angelate]
[1]
  cardiovascular changes: no notable cardiovascular changes
  clinical or behavioral effects: no adverse clinical or behavioral effects
[2]
  affinity for PKC C1 domains: subnanomolar
[3]
  tolerated repeated dose: up to 15 ug/kg/day
[4]; EOSPD/PD cultures (190iPD), treated 3 days from day 27, PEP005 1 μM, SMER-28 5 μM, Trehalose
  α-synuclein levels (western blot): substantially reduced
[4]; PEP005-treated mDA cultures
  α-synuclein by immunostaining: decreased
[4]; both control and PD cultures / all treated lines, PEP005 1 μM, 3 days
  α-synuclein levels (western blot): reduced; also recorded: decrease; also recorded: rapid reduction
[4]; control line cultures (02iCTR), treated 3 days from day 27, PEP005 1 μM, SMER-28 5 μM, Trehalose
  amount of α-synuclein protein (western blot): significantly reduced
[4]; dose response study, low doses
  α-synuclein at low PEP005 doses: robust reduction
[4]; time-course, control and PD cultures
  time until α-synuclein is degraded in response to drug treatment: ≤ 24 h
[5]
  tolerability: well tolerated
[6]
  tolerated repeated dose: ≤ 5 µg/kg
